In US20240246920A1, “TRIAZOLE DERIVATIVES WITH ANTIFUNGAL ACTIVITY” (King's College London, priority 2020, published 2024):
Converted amounts (≈) assume the structure as drawn.

Assays:
Candida auris TDG2211 = test: microbe, parasite or virus in culture; format: cell-based; details: Candidozyma auris, TDG2211, read-out: MIC C. auris 2211
Description: (§1) The minimum inhibitory concentration of test compounds were determined in a panel of Candida species (see Table 4 below), using the a serial dilution method in 96-well plates using the following protocol.
(§2) Starter cultures of fungal strains to be tested were grown in 3 mL of RPMI 2% glucose media incubated at 37° C. with shaking at 200 rpm overnight. The culture media used was 900 mL H2O; 10.4 g RPMI 1640 (with L-glutamine and a pH indicator but without bicarbonate); 34.5 g MOPS and 18 g glucose. The pH of the media was adjusted to 7.0 with 1 M sodium hydroxide.
(§3) Solutions of the compound to be tested were prepared by dissolving the compound in DMSO and subsequently into media to the desired concentrations. […] The last two rows of each plate were control rows containing the culture media alone and the media plus fungi.
(§4) The fungi starter cultures were diluted 1:10 in water in cuvettes. This was then further diluted to an optical density (OD600) of 0.01 in media. 100 μL of the fungi was added to each well giving a starting concentration of fungus of 0.5-5×10^5/mL. One species of fungus was used on each plate. The plates were then held at 37° C. for 24 hours.
(§5) A plate reader was used to measure growth in each well at OD530 nm and the MIC was determined for each test compound. The MIC is defined as the lowest concentration giving rise to inhibition of ≥50% of that of the drug-free control well containing the fungus and media.
(§6) The Candida auris strains shown in Table 7 were either taken from the National Collection of Pathogenic Fungi (NCPF) or collected as part of ongoing surveillance studies. The strains were characterised as follows.

Candida auris TDG2506 = test: microbe, parasite or virus in culture; format: cell-based; details: Candidozyma auris, TDG2506, read-out: MIC C. auris 2506
Description: as §1, §2, §3, §4, §5, §6

C. auris 8971 = test: Candida panel MIC, serial dilution in 96-well plates; format: cell-based, Candida auris; details: Candidozyma auris, 8971, read-out: MIC C. auris 8971
Description: as §1, §2, §3, §4, §5, §6

C. auris 8977 = test: as above; format: cell-based, Candida auris; details: Candidozyma auris, 8977, read-out: MIC C. auris 8977
Description: as §1, §2, §3, §4, §5, §6

C. auris 8984 = test: as above; format: cell-based, Candida auris; details: Candidozyma auris, 8984, read-out: MIC C. auris 8984
Description: as §1, §2, §3, §4, §5, §6

Compound | MIC (Candida auris TDG2211) | MIC (Candida auris TDG2506) | MIC (C. auris 8971) | MIC (C. auris 8977) | MIC (C. auris 8984)
OC(CN1CCC(Nc2ccc(OCCN3CCOCC3)cc2)CC1)(Cn1cncn1)c1ccc(F)cc1F (stereo not drawn) [Compound number 6, 2-(2,4-Difluorophenyl)-1-(4-((4-(2-morpholinoethoxy)phenyl)amino)piperidin-1-yl)-3-(1H-1,2,4-triazol-1-yl)propan-2-ol] | 0.25 µg/mL (≈ 0.461 µM) | 0.25 µg/mL (≈ 0.461 µM) | 0.03 µg/mL (≈ 0.0553 µM) | 0.06 µg/mL (≈ 0.111 µM) | 0.125 µg/mL (≈ 0.23 µM)
OC(CN1CCC(Nc2ccc(Cc3ccccc3)cc2)CC1)(Cn1cncn1)c1ccc(F)cc1F (stereo not drawn) [Compound number 11, 1-(4-((4-benzylphenyl)amino)piperidin-1-yl)-2-(2,4-difluorophenyl)-3-(1H-1,2,4-triazol-1-yl)propan-2-ol] | ≤ 0.125 µg/mL | 0.125 µg/mL (≈ 0.248 µM) | ≤ 0.125 µg/mL | ≤ 0.125 µg/mL | 0.125 µg/mL (≈ 0.248 µM)
OC(CN1CCC(N2CCC(Nc3ccc(Cc4ccccc4)cc3)CC2)CC1)(Cn1cncn1)c1ccc(F)cc1F (stereo not drawn) [Compound number 12, 1-(4-((4-benzylphenyl)amino)-[1,4′-bipiperidin]-1′-yl)-2-(2,4-difluorophenyl)-3-(1H-1,2,4-triazol-1-yl)propan-2-ol] | ≤ 0.125 µg/mL | ≤ 0.125 µg/mL | ≤ 0.125 µg/mL | ≤ 0.125 µg/mL | ≤ 0.125 µg/mL
OC(CN1CCC2(CCC(Nc3ccc(Cc4ccccc4)cc3)CC2)C1)(Cn1cncn1)c1ccc(F)cc1F (stereo not drawn) [Compound number 13, 1-(8-((4-benzylphenyl)amino)-2-azaspiro[4.5]decan-2-yl)-2-(2,4-difluorophenyl)-3-(1H-1,2,4-triazol-1-yl)propan-2-ol] | ≤ 0.125 µg/mL | ≤ 0.125 µg/mL | ≤ 0.125 µg/mL | ≤ 0.125 µg/mL | ≤ 0.003 µg/mL
OC(CN1CCC2(CCC(Nc3ccc(OCCN4CCOCC4)cc3)CC2)C1)(Cn1cncn1)c1ccc(F)cc1F (stereo not drawn) [Compound number 87, 2-(2,4-difluorophenyl)-1-(8-((4-(2-morpholinoethoxy)phenyl)amino)-2-azaspiro[4.5]decan-2-yl)-3-(1H-1,2,4-triazol-1-yl)propan-2-ol] | 0.125 µg/mL (≈ 0.209 µM) | 0.125 µg/mL (≈ 0.209 µM) | 0.25 µg/mL (≈ 0.419 µM) | 0.25 µg/mL (≈ 0.419 µM) | 0.25 µg/mL (≈ 0.419 µM)
OC(CN1CCC(Nc2ccc(OCc3ccccc3)cc2)CC1)(Cn1cncn1)c1ccc(F)cc1F (stereo not drawn) [Compound number 90, 1-(4-((4-(benzyloxy)phenyl)amino)piperidin-1-yl)-2-(2,4-difluorophenyl)-3-(1H-1,2,4-triazol-1-yl)propan-2-ol] | ≤ 0.003 µg/mL | ≤ 0.003 µg/mL | ≤ 0.003 µg/mL | ≤ 0.003 µg/mL | ≤ 0.003 µg/mL
